Laboratory results as given in PMC6982223, “Design, Synthesis and Molecular Modeling Study of Conjugates of ADP and Morpholino Nucleosides as A Novel Class of Inhibitors of PARP-1, PARP-2 and PARP-3” (International Journal of Molecular Sciences, 2019).

Key:
Format in all cases: biochemical
[1] = biological target: T1, Murine recombinant poly(ADP-ribose)-polymerase 2 (Mus musculus, UniProt O88554); experiment: autopoly(ADP-ribosyl)ation of PARP-2, [32P]NAD+ incorporation; conditions: for IC50: autopoly(ADP-ribosyl)ation, 0.6 mM NAD+; for remaining activity at 1000 µM / Residual PARP-2 activity: in the presence of 1 mM compound; for remaining activity at 1000 µM: read-out: Residual PARP-2 activity (converted)
T1 construct: made in house
Source text: (§1) The oligonucleotides were purchased from Biosset (Novosibirsk, Russia). The reagents, solvents and the basic components of buffers were purchased from Sigma (St. Louis, MO, USA), Acros organics (Waltham, MA, USA) or Promega (Madison, WI, USA). γ–[^32P]-ATP and α–[^32P]-ATP (with specific activities of 5000 and 3000 Ci/mmol, respectively) were from the Laboratory of Biotechnology (Institute of Chemical Biology and Fundamental Medicine, Novosibirsk, Russia). T4 polynucleotide kinase was from Biosan (Novosibirsk, Russia). SUMO fusion expression vector pETHSUL (GenBank: EF205333.1) and pSUPER vector coding for the catalytic domain of the S. cerevisiae SUMO hydrolase dtUD1 were kindly provided by Dr. P. Loll (Drexel University, Philadelphia, USA). His6 and Strep-II double-tagged dtUD1 hydrolase was expressed and purified as described in ref. [81]. Human recombinant poly(ADP-ribose)-polymerase 1 (EC 2.4.2.30) was prepared as described previously. Murine recombinant poly(ADP-ribose)-polymerase 2 (EC 2.4.2.30) was purified as described previously. Plasmid encoding human PARP-3 was kindly provided by Dr. A. Ishchenko (Gustave Roussy, Université Paris-Saclay, France). Poly(ADP-ribose)-polymerase 3 (EC 2.4.2.30) was purified according to [6].
(§2) The reaction of autopoly(ADP-ribosyl)ation was carried out as follows: for PARP-1 50 mM tris-HCl, pH 8.0, 20 mM MgCl2, 150 mM NaCl, and 7 mM β-mercaptoethanol, activated DNA 2 OE/mL, 0.3 mM [^32P] NAD+ at 37 °C. The reaction was initiated by adding PARP-1 to 200 nM and the reaction mixtures were incubated for 1.5 min. For PARP-2: 50 mM tris-HCl, pH 8.0, 3 mM spermin, 150 mM NaCl, and 7 mM β-mercaptoethanol, activated DNA 2 OE/mL, 0.6 mM [^32P] NAD+ at 37 °C. The reaction was initiated by adding PARP-2 to 800 nM and the reaction mixtures were incubated for 5 min. The reaction was stopped by placing 10 μL aliquots onto Whatman 1 paper filters soaked with 5 % TCA. The filters were washed with 5% TCA for four times and dried in air after the removal of TCA with 90% ethanol. The incorporation of radioactivity into the product was calculated with a Tri-Carb 2800 scintillation counter (Perkin Elmer, Waltham, MA, USA) according to the Cherenkov method or using Typhoon FLA 9500 scanner (GE Healthcare, Chicago, IL, USA). To determine the IC50 value of inhibitors (concentration of the compound required reducing the enzyme activity by 50%), we studied the activity of the enzyme at different concentrations of inhibitors. Measurements were done in at least two independent experiments. IC50 values were calculated using the Origin Pro 8.0 software by nonlinear regression analysis.

[2] = biological target: T2, Human recombinant poly(ADP-ribose)-polymerase 1 (Homo sapiens, UniProt P09874); experiment: autopoly(ADP-ribosyl)ation of PARP-1, [32P]NAD+ incorporation; conditions: for IC50: autopoly(ADP-ribosyl)ation, 0.3 mM NAD+; for remaining activity at 1000 µM / Residual PARP-1 activity: in the presence of 1 mM compound; for remaining activity at 1000 µM: read-out: Residual PARP-1 activity (converted)
T2 construct: made in house
Source text: as §1, §2

PARP-1 = biological target: T3, PARP-1 (Homo sapiens, UniProt P09874); experiment: kinetics of PARP-1 inhibition (Km, Vmax, type of inhibition) by fluorescence anisotropy; conditions: for type of inhibition: PARP-1 catalyzed reaction, versus NAD+
T3 construct: made in house
Method: The type of inhibition was determined based on at what stage of the reaction the inhibitor binds to the enzyme (before or after the substrate binding) and where it binds (at the substrate binding site or elsewhere). There are four types of inhibition: competitive, whereby an inhibitor binding occurs at the substrate-binding site; noncompetitive, where an inhibitor binds at the allosteric center; mixed with inhibitor binding at both the active and allosteric center; or uncompetitive under an inhibitor binding to the enzyme-substrate complex. Determination of the type of inhibition is necessary to confirm the computer simulation data and to plan further modifications of the inhibitor structure. The type of inhibition can be determined from the plots of the reaction parameters, such as maximum rates, Vmax and the apparent Michaelis constant, Km, values, versus inhibitor concentration. […] Noncompetitive inhibition leads to a decrease of Vmax and retention of the Km values. Mixed inhibition is a superposition of the first two, and is characterized by a decrease in the reaction rate and an increase in Km values. In the case of uncompetitive inhibition, both […].
To determine the type of inhibition of the studied compounds, the activity of PARP-1 was measured at presence of three different inhibitor concentrations at nine NAD+ substrate concentrations by the fluorescence anisotropy technique. Based on the obtained data, dependence graphs of the initial reaction rate on the substrate concentration were constructed, and reaction parameters such as maximum reaction rate (Vmax) and apparent Michaelis constant (Km) values were found (Tables S3 and S4, Supporting). To determine the type of inhibition, we plotted the dependence graph of Vmax and Km values on the inhibitor concentration using OriginPro 8.6.0 software. (Figure 3). […] Therefore, the results of modeling of the binding type of these compounds in the enzyme’s active center are legitimate.
The determination of the kinetic parameters of inhibition Km and Vmax was carried out as described. In all experiments, the points on the experimental curves represent the average of a minimum three independent experiments.

T1 sequence (O88554 whole entry): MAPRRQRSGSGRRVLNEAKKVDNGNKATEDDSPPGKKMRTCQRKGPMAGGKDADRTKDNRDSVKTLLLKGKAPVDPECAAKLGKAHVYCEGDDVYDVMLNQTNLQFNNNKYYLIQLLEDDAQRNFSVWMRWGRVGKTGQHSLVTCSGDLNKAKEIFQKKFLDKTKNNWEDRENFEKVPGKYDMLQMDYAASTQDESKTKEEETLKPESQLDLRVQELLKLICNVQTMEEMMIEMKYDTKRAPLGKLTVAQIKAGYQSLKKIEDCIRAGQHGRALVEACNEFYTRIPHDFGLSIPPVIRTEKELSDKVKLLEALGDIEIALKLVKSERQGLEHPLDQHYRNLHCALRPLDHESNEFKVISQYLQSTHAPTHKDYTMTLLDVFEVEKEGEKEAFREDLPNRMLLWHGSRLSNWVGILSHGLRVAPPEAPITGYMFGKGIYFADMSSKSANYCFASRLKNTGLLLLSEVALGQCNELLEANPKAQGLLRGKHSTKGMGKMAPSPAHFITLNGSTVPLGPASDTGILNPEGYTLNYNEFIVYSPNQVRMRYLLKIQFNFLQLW
T3 sequence (P09874 whole entry): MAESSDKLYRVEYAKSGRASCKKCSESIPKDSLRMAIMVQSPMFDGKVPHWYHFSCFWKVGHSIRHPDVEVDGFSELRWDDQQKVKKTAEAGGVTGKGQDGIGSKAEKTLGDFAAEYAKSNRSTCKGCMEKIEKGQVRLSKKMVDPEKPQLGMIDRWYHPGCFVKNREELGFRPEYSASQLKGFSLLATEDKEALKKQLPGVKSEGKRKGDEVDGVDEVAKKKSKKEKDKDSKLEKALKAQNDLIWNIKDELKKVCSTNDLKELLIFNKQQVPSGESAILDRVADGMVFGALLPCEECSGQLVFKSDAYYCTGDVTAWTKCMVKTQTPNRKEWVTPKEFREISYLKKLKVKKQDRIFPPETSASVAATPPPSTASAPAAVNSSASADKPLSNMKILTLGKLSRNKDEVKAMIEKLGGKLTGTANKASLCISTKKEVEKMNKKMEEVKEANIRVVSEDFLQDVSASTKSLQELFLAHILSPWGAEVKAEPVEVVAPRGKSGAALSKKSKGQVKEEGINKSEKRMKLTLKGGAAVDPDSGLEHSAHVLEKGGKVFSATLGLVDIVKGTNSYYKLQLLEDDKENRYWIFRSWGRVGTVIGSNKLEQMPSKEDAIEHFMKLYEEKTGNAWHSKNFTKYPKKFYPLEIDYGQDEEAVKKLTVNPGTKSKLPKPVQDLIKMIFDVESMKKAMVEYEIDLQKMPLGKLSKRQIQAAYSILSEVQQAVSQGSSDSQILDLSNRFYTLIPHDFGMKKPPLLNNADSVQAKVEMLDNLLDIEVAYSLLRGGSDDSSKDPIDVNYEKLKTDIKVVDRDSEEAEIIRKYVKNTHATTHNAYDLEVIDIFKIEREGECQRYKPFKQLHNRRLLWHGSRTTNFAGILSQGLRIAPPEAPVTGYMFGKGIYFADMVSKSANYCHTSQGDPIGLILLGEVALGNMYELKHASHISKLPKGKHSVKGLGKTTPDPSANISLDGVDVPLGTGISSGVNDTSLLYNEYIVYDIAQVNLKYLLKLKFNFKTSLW
T2 sequence (P09874 whole entry): as above

| IC50 [1] | remaining activity at 1000 µM [1] | remaining activity at 1000 µM [2] | SMILES | also measured |
| --- | --- | --- | --- | --- |
| 114 ± 32 µM | – | – | Cc1cn([C@H]2CNC[C@@H](CO)O2)c(=O)[nH]c1=O [Compound 11T] | IC50 [2]: 148 ± 53 µM |
| – | 66% | 96% | Nc1ccn(C2CNCC(COP(=O)(O)OP(=O)(O)OCC3OC(n4cnc5c(N)ncnc54)C(O)C3O)O2)c(=O)n1 (centres unmarked) [Compound 4C] | – |
| – | – | – | NC(=O)c1cccc(N)c1 [Compound 3-AB, 3-aminobenzamide, reference compound] | Vmax (PARP-1; inhibitor concentration 50 μМ): 0.16 RFU/sec; Vmax (PARP-1; inhibitor concentration 100 μМ): 0.16 RFU/sec; Vmax (PARP-1; inhibitor concentration 500 μМ): 0.16 RFU/sec |
| – | – | – | O=c1ccn([C@@H]2O[C@H](CO)[C@@H](O)[C@H]2O)c(=O)[nH]1 [Urd, reference compound] | Residual PARP-2 activity [1]: 96% ± 10% |
| – | 34% | 45.5% | Nc1nc2c(ncn2C2CNCC(COP(=O)(O)OP(=O)(O)OCC3OC(n4cnc5c(N)ncnc54)C(O)C3O)O2)c(=O)[nH]1 (centres unmarked) [Compound 4G] | – |
| 190 ± 16 µM | – | – | O=c1[nH]c(=O)n([C@@H]2O[C@H](CO)[C@@H](O)[C@H]2O)cc1Br [Compound 5-Br-Urd, 5-Br-uridine, reference compound] | IC50 [2]: 244 ± 83 µM |
| 330 ± 61 µM | – | – | Cc1cn([C@@H]2O[C@H](CO)[C@@H](O)[C@H]2O)c(=O)[nH]c1=O [rThd, reference compound] | IC50 [2]: 277 ± 107 µM |
| 210 ± 48 µM | – | – | O=c1[nH]c(=O)n([C@H]2CNC[C@@H](CO)O2)cc1Br [Compound 11BrU] | IC50 [2]: 61 ± 16 µM |
| – | 47% | 46% | Nc1ncnc2c1ncn2C1OC(COP(=O)(O)OP(=O)(O)NCC2CNCC(n3cc(Cl)c(=O)[nH]c3=O)O2)C(O)C1O (centres unmarked) [Compound 10ClU] | – |
| 196 ± 25 µM | – | – | O=c1[nH]c(=O)n([C@@H]2O[C@H](CO)[C@@H](O)[C@H]2O)cc1Cl [Compound 5-Cl-Urd, 5-Cl-uridine, reference compound] | Residual PARP-1 activity [2]: 82% ±17% |
| 160 µM | – | – | Nc1ncnc2c1ncn2C1OC(COP(=O)(O)OP(=O)(O)OCC2CNCC(n3cc(I)c(=O)[nH]c3=O)O2)C(O)C1O (centres unmarked) [Compound 4IU] | type of inhibition (PARP-1): mixed inhibitor; Vmax (PARP-1; inhibitor concentration 50 μМ): 0.16 RFU/sec; Vmax (PARP-1; inhibitor concentration 100 μМ): 0.15 RFU/sec; Vmax (PARP-1; inhibitor concentration 500 μМ): 0.14 RFU/sec; IC50 [2]: 255 µM |
| – | 34.5% | 87.5% | Nc1ccn(C2CNCC(CNP(=O)(O)OP(=O)(O)OCC3OC(n4cnc5c(N)ncnc54)C(O)C3O)O2)c(=O)n1 (centres unmarked) [Compound 10C] | – |
| – | 46.8% | 57.5% | Nc1ncnc2c1ncn2C1OC(COP(=O)(O)OP(=O)(O)OCC2CNCC(n3cc(Cl)c(=O)[nH]c3=O)O2)C(O)C1O (centres unmarked) [Compound 4ClU] | – |
| – | – | – | Nc1nc2c(ncn2[C@@H]2O[C@H](CO)[C@@H](O)[C@H]2O)c(=O)[nH]1 [Guo, reference compound] | Residual PARP-2 activity [1]: 46% ± 25%; Residual PARP-1 activity [2]: 60% ± 13% |
| 378 µM | – | – | O=c1[nH]c(=O)n([C@H]2CNC[C@@H](CO)O2)cc1Cl [Compound 11ClU] | IC50 [2]: 233 ± 25 µM |
| – | – | – | Nc1ccn([C@@H]2O[C@H](CO)[C@@H](O)[C@H]2O)c(=O)n1 [Cyd, reference compound] | Residual PARP-2 activity [1]: 85% ± 4%; Residual PARP-1 activity [2]: 81% ± 16% |
| 474 µM | – | 40% | Cc1cn(C2CNCC(COP(=O)(O)OP(=O)(O)OCC3OC(n4cnc5c(N)ncnc54)C(O)C3O)O2)c(=O)[nH]c1=O (centres unmarked) [Compound 4T] | – |
| 254 µM | – | 60% | Nc1ncnc2c1ncn2C1OC(COP(=O)(O)OP(=O)(O)NCC2CNCC(n3cc(Br)c(=O)[nH]c3=O)O2)C(O)C1O (centres unmarked) [Compound 10BrU] | – |
| 224 µM | – | 74% | Nc1nc2c(ncn2C2CNCC(CNP(=O)(O)OP(=O)(O)OCC3OC(n4cnc5c(N)ncnc54)C(O)C3O)O2)c(=O)[nH]1 (centres unmarked) [Compound 10G] | – |
| 474 µM | – | 36% | Nc1ncnc2c1ncn2C1OC(COP(=O)(O)OP(=O)(O)OCC2CNCC(n3cc(Br)c(=O)[nH]c3=O)O2)C(O)C1O (centres unmarked) [Compound 4BrU] | – |
| – | – | – | Nc1ncnc2c1ncn2[C@@H]1O[C@H](CO)[C@@H](O)[C@H]1O [Ado, reference compound] | Residual PARP-2 activity [1]: 86% ± 1%; Residual PARP-1 activity [2]: 77% ± 21% |
| 136 µM | – | – | Cc1cn(C2CNCC(CNP(=O)(O)OP(=O)(O)OCC3OC(n4cnc5c(N)ncnc54)C(O)C3O)O2)c(=O)[nH]c1=O (centres unmarked) [Compound 10T] | IC50 [2]: 220 µM |
| 26.5 ± 3.5 µM | – | – | O=c1[nH]c(=O)n([C@@H]2O[C@H](CO)[C@@H](O)[C@H]2O)cc1I [Compound 5-I-Urd, 5-I-uridine, reference compound] | IC50 [2]: 49 ± 9 µM |
| – | 67% | 93% | Nc1ncnc2c1ncn2C1OC(COP(=O)(O)OP(=O)(O)OCC2CNCC(n3ccc(=O)[nH]c3=O)O2)C(O)C1O (centres unmarked) [Compound 4U] | – |
| – | 33% | 89% | Nc1ncnc2c1ncn2C1OC(COP(=O)(O)OP(=O)(O)NCC2CNCC(n3ccc(=O)[nH]c3=O)O2)C(O)C1O (centres unmarked) [Compound 10U] | – |
| 421 ± 6 µM | – | 80% | Nc1ncnc2c1ncn2C1CNCC(COP(=O)(O)OP(=O)(O)OCC2OC(n3cnc4c(N)ncnc43)C(O)C2O)O1 (centres unmarked) [Compound 4A] | – |

| SMILES | IC50 [1] | remaining activity at 1000 µM [1] | remaining activity at 1000 µM [2] | also measured |
| --- | --- | --- | --- | --- |
| Nc1ncnc2c1ncn2[C@H]1CNC[C@@H](CO)O1 [Compound 11A] | – | 90% | 82% | – |
| O=c1[nH]c(=O)n([C@H]2CNC[C@@H](CO)O2)cc1I [Compound 11IU] | 85 ± 9 µM | – | – | type of inhibition (PARP-1): competitive inhibitors; Vmax (PARP-1; inhibitor concentration 50 μМ): 0.066 RFU/sec; Vmax (PARP-1; inhibitor concentration 100 μМ): 0.066 RFU/sec; Vmax (PARP-1; inhibitor concentration 500 μМ): 0.060 RFU/sec; IC50 [2]: 53 ± 12 µM |
| Nc1ccn([C@H]2CNC[C@@H](CO)O2)c(=O)n1 [Compound 11C] | – | 58% | – | – |
| Nc1nc2c(ncn2[C@H]2CNC[C@@H](CO)O2)c(=O)[nH]1 [Compound 11G] | – | 64% | – | – |
| O=c1ccn([C@H]2CNC[C@@H](CO)O2)c(=O)[nH]1 [Compound 11U] | – | 97% | 91% | – |
